Measured values reported in patent US10962508B2, “Ultrasound-based method and related system to evaluate hemostatic function of whole blood” (University of Virginia Patent Foundation, priority 2009, dated 2021).
“Also recorded” adds a separate entry of the source.

Assays:
Format in all cases: cell-based, human
[1] = system: platelet aggregation in whole blood; experiment: Sonorheometry of whole blood: assessment of platelet function (abciximab titration)
Procedure: (§1) Blood samples were obtained from a peripheral vein of the arm of a patient into six 1.8 ml Vacutainers™ (Becton Dickinson, Franklin Lakes, N.J.) containing 3.2% (0.105M) sodium citrate to prevent coagulation within the tubes. The first tube was discarded, while the remaining tubes were placed on a rocker table and analyzed sequentially starting thirty minutes after the draw. For all the experiments described here, samples were obtained from a total of eight volunteers (four male and four female) with age range of twenty-three to thirty years (mean and standard deviation of 25.75±3.3 years) and with no history of thrombotic or hemorrhagic disorders. Ultrasound pulses having 10 Mhz center frequency were applied, PRF was adaptively adjusted with the range of about 25 Hz to about 12.8 kHz. Automated measurements having a one second acquisition time were performed every six seconds.
(§2) In a typical experiment, 1 ml of citrated blood was pipetted into a 4 ml clear polystyrene cuvette 142 along with 0.5 mg of kaolin activator to start coagulation through activation of the intrinsic pathway and 62 μl of 0.2M CaCl2 to reverse the anticoagulant effect of the sodium citrate. Other reagents were also added as required by the specific study performed. Phosphate Buffer Saline (PBS) solution was added to maintain identical blood dilution. […]
(§3) Gly-Pro-Arg-Pro (GPRP) was obtained from Calbiochem (EMD Chemicals Inc., Gibbstown, N.J.) with 99.1% purity as determined by HPLC. […]
(§4) The raw ultrasound data were transferred from the custom PCB 110 to the laptop computer 150 through USB interface 112 and analyzed in MATLAB (MathWorks Inc., Natick, Mass.). […]
(§5) The sonorheometry parameters were calculated by fitting values 20 T to a sigmoidal curve 602 and evaluating the first derivative 30 of the curve 602, as shown in FIG. 8. For example, the clotting times TC1 and TC2 were calculated based on a threshold value of the derivative curve (20% of the minimum value), whereas the clotting slope CFR is the minimum of the derivative curve. […]

[2] = system: fibrin polymerization in whole blood; experiment: Sonorheometry of whole blood: coagulation plasma factors and fibrin polymerization (GPRP titration); details: kaolin-activated citrated whole blood, 5 volunteers; GPRP 0, 1, 2, 4, 8 mM
Procedure: as §1
In a typical experiment, 1 ml of citrated blood was pipetted into a 4 ml clear polystyrene cuvette 142 along with 0.5 mg of kaolin activator to start coagulation through activation of the intrinsic pathway and 62 μl of 0.2M CaCl2 to reverse the anticoagulant effect of the sodium citrate. Other reagents were also added as required by the specific study performed. Phosphate Buffer Saline (PBS) solution was added to maintain identical blood dilution. Sonorheometry data acquisition was initiated one minute after all the reagents were pipetted into the sample, and measurements were performed every six seconds.
Gly-Pro-Arg-Pro (GPRP) was obtained from Calbiochem (EMD Chemicals Inc., Gibbstown, N.J.) with 99.1% purity as determined by HPLC. GPRP was dissolved in PBS into 100 mM stock. Kaolin was obtained in powder form (Sigma Aldrich, St. Louis, Mo.) and suspended in sterile sodium chloride solution (Becton Dickinson, Franklin Lakes, N.J.). Monoclonal antibody abciximab (ReoPro®, Eli Lilly and Company, Indianapolis, Ind.) was obtained in a concentration of 2 mg/ml. The original solution was diluted by a factor of five by adding 200 μL of PBS into 50 μl of the original ReoPro solution. The serine protease abbokinase (urokinase-type Plasminogen Activator, or uPA, Hyphen Biomed, Neuville-sur-Oise, France) was obtained in a concentration of 1 unit/μl.
as §4, §5

[3] = system: fibrinolysis of whole blood clot; experiment: Sonorheometry of whole blood: assessment of fibrinolytic proteins (urokinase titration); details: urokinase 0, 100, 150, 200 Units per ml of blood
Procedure: as §1, §2, §3, §4, §5

[4] = kaolin-activated citrated whole blood

## abciximab: monoclonal antibody; inhibitor of platelet aggregation blocking the IIb/IIIa receptor
[1]; abciximab 0, 2, 4, 6, 8, 12 μg/ml
  other parameters describing the dynamics of clot formation and dissolution: did not change significantly
[1]; abciximab 0 to 12 μg/ml
  variation of final clot stiffness across the concentrations used: varied by over one order of magnitude
[1]; kaolin-activated citrated whole blood, five individuals, abciximab 0, 2, 4, 6, 8, 12 μg/ml
  stiffness SMAX: reduces the stiffness SMAX yielding a softer clot

## Gly-Pro-Arg-Pro [GPRP]
[2]
  clot formation rate CFR (rate of fibrin polymerization): decreased
  final clotting time TC2: increase with the concentration of GPRP
  initial clotting time TC1: increase with the concentration of GPRP
  stiffness S (final stiffness of the formed clot): decreased

## urokinase
[3]; [4]
  clot lysis time TL1: decreased as a function of urokinase concentration
  clot lysis time TL2: decreased as a function of urokinase concentration
[3]
  return of blood sample to a viscous fluid (clot dissolution): returned to a viscous fluid significantly faster with increasing concentrations of urokinase; also recorded: rapidly dissolved the blood clot and restored the original mechanical conditions prior to clot formation
